Experimental data as given in PubChem BioAssay AID2060614 (Molecular Pharmacology Branch, DTP, NCI, 2025).

Tested on: 598228-144-R-J1-PDC complex spheroids, viability
Assay: Anticancer human tumor 598228-144-R-J1-PDC patient-derived serous endometrial adenocarcinoma cell line growth inhibition [CLK]
Conditions: for IC50: curve of first compound; for viability, T/C: stronger effect = lower value
Method in brief: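 Multi-cell-type spheroids combined patient-derived tumor cells with HUVEC endothelial cells and human mesenchymal stem cells. Paired agents were dosed in half-log steps down from about clinical Cmax, or from 10 microM where Cmax was unknown.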
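Note: spheroids exposed to compounds for seven days before readout.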
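Throughout, for viability, T/C: 100% = DMSO vehicle control wells.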

In the case of `CC(C)CC(NC(=O)C(Cc1ccccc1)NC(=O)c1cnccn1)B(O)O` (centres undefined) + CNC(=O)c1ccc(Nc2nc(OC3CCCC3)c3c(-c4ccc5nc(C)oc5c4)c[nH]c3n2)c(OC)c1, the IC50 (second compound 0.0316 µM) is reported as 0.00468 µM, the IC50 (second compound 0.1 µM) is reported as 0.00505 µM and the IC50 (second compound 0.316 µM) is reported as 0.00347 µM. The IC50 (second compound 1 µM) was 0.00218 µM, the IC50 (second compound 3.16 µM) was 0.00208 µM and the IC50 (second compound 10 µM) was 0.00196 µM. It also gave a viability, T/C (second compound 0.0316 µM, first compound 0.000949 µM) of 111%, a viability, T/C (second compound 0.0316 µM, first compound 0.003 µM) of 79.8% and a viability, T/C (second compound 0.0316 µM, first compound 0.00949 µM) of 2.81%. The viability, T/C (second compound 0.0316 µM, first compound 0.03 µM) was 0.55%, the viability, T/C (second compound 0.0316 µM, first compound 0.0949 µM) was 0.7% and the viability, T/C (second compound 0.0316 µM, first compound 0.3 µM) was 0.37%. For the same molecule, the viability, T/C (second compound 0.1 µM, first compound 0.000949 µM) was 127%, the viability, T/C (second compound 0.1 µM, first compound 0.003 µM) was 88.8% and the viability, T/C (second compound 0.1 µM, first compound 0.00949 µM) was 3.14%. For the same molecule, the viability, T/C (second compound 0.1 µM, first compound 0.03 µM) was 0.58%, the viability, T/C (second compound 0.1 µM, first compound 0.0949 µM) was 0.44% and the viability, T/C (second compound 0.1 µM, first compound 0.3 µM) was 0.49%. It also gave a viability, T/C (second compound 0.316 µM, first compound 0.000949 µM) of 116%, a viability, T/C (second compound 0.316 µM, first compound 0.003 µM) of 56.7% and a viability, T/C (second compound 0.316 µM, first compound 0.00949 µM) of 3.51%. For the same molecule, the viability, T/C (second compound 0.316 µM, first compound 0.03 µM) was 0.83%, the viability, T/C (second compound 0.316 µM, first compound 0.0949 µM) was 0.51% and the viability, T/C (second compound 0.316 µM, first compound 0.3 µM) was 0.91%. The viability, T/C (second compound 1 µM, first compound 0.000949 µM) was 128%, the viability, T/C (second compound 1 µM, first compound 0.003 µM) was 19.7% and the viability, T/C (second compound 1 µM, first compound 0.00949 µM) was 1.31%. For the same molecule, the viability, T/C (second compound 1 µM, first compound 0.03 µM) was 0.56%, the viability, T/C (second compound 1 µM, first compound 0.0949 µM) was 0.77% and the viability, T/C (second compound 1 µM, first compound 0.3 µM) was 1.17%. It also gave a viability, T/C (second compound 3.16 µM, first compound 0.000949 µM) of 128%, a viability, T/C (second compound 3.16 µM, first compound 0.003 µM) of 13.9% and a viability, T/C (second compound 3.16 µM, first compound 0.00949 µM) of 0.9%. For the same molecule, the viability, T/C (second compound 3.16 µM, first compound 0.03 µM) was 0.44%, the viability, T/C (second compound 3.16 µM, first compound 0.0949 µM) was 2.9% and the viability, T/C (second compound 3.16 µM, first compound 0.3 µM) was 1.57%. The viability, T/C (second compound 10 µM, first compound 0.000949 µM) was 115%, the viability, T/C (second compound 10 µM, first compound 0.003 µM) was 11.9% and the viability, T/C (second compound 10 µM, first compound 0.00949 µM) was 2.24%. For the same molecule, the viability, T/C (second compound 10 µM, first compound 0.03 µM) was 1.62%, the viability, T/C (second compound 10 µM, first compound 0.0949 µM) was 0.46% and the viability, T/C (second compound 10 µM, first compound 0.3 µM) was 2.11%.
In the case of `CC1(C)CCC(CN2CCN(c3ccc(C(=O)NS(=O)(=O)c4ccc(NCC5CCOCC5)c([N+](=O)[O-])c4)c(Oc4cnc5[nH]ccc5c4)c3)CC2)=C(c2ccc(Cl)cc2)C1` + CNC(=O)c1ccc(Nc2nc(OC3CCCC3)c3c(-c4ccc5nc(C)oc5c4)c[nH]c3n2)c(OC)c1, the IC50 (second compound 0.0316 µM) is reported as 7.05 µM, the IC50 (second compound 0.1 µM) is reported as 6.44 µM and the IC50 (second compound 0.316 µM) is reported as 6.42 µM. For the same molecule, the IC50 (second compound 1 µM) was 6.64 µM, the IC50 (second compound 3.16 µM) was 6.11 µM and the IC50 (second compound 10 µM) was 6.42 µM. For the same molecule, the viability, T/C (second compound 0.0316 µM, first compound 0.0316 µM) was 96.4%, the viability, T/C (second compound 0.0316 µM, first compound 0.1 µM) was 116% and the viability, T/C (second compound 0.0316 µM, first compound 0.316 µM) was 105%. The viability, T/C (second compound 0.0316 µM, first compound 1 µM) was 96.5%, the viability, T/C (second compound 0.0316 µM, first compound 3.16 µM) was 100% and the viability, T/C (second compound 0.0316 µM, first compound 10 µM) was 28.1%. It also gave a viability, T/C (second compound 0.1 µM, first compound 0.0316 µM) of 105%, a viability, T/C (second compound 0.1 µM, first compound 0.1 µM) of 97.6% and a viability, T/C (second compound 0.1 µM, first compound 0.316 µM) of 103%. The viability, T/C (second compound 0.1 µM, first compound 1 µM) was 99.4%, the viability, T/C (second compound 0.1 µM, first compound 3.16 µM) was 99.4% and the viability, T/C (second compound 0.1 µM, first compound 10 µM) was 19.5%. It also gave a viability, T/C (second compound 0.316 µM, first compound 0.0316 µM) of 106%, a viability, T/C (second compound 0.316 µM, first compound 0.1 µM) of 104% and a viability, T/C (second compound 0.316 µM, first compound 0.316 µM) of 98.5%. For the same molecule, the viability, T/C (second compound 0.316 µM, first compound 1 µM) was 103%, the viability, T/C (second compound 0.316 µM, first compound 3.16 µM) was 105% and the viability, T/C (second compound 0.316 µM, first compound 10 µM) was 16.6%. For the same molecule, the viability, T/C (second compound 1 µM, first compound 0.0316 µM) was 106%, the viability, T/C (second compound 1 µM, first compound 0.1 µM) was 99.9% and the viability, T/C (second compound 1 µM, first compound 0.316 µM) was 96.5%. It also gave a viability, T/C (second compound 1 µM, first compound 1 µM) of 95.4%, a viability, T/C (second compound 1 µM, first compound 3.16 µM) of 99.2% and a viability, T/C (second compound 1 µM, first compound 10 µM) of 22.8%. The viability, T/C (second compound 3.16 µM, first compound 0.0316 µM) was 99.1%, the viability, T/C (second compound 3.16 µM, first compound 0.1 µM) was 91.1% and the viability, T/C (second compound 3.16 µM, first compound 0.316 µM) was 79.9%. The viability, T/C (second compound 3.16 µM, first compound 1 µM) was 84.3%, the viability, T/C (second compound 3.16 µM, first compound 3.16 µM) was 89.3% and the viability, T/C (second compound 3.16 µM, first compound 10 µM) was 21%. For the same molecule, the viability, T/C (second compound 10 µM, first compound 0.0316 µM) was 86.3%, the viability, T/C (second compound 10 µM, first compound 0.1 µM) was 89% and the viability, T/C (second compound 10 µM, first compound 0.316 µM) was 83.3%. The viability, T/C (second compound 10 µM, first compound 1 µM) was 81.2%, the viability, T/C (second compound 10 µM, first compound 3.16 µM) was 97.6% and the viability, T/C (second compound 10 µM, first compound 10 µM) was 26.6%.
